{"source": "patent US20230279132A1", "about": "“TREATMENT OF B CELL MALIGNANCIES” (NOVARTIS AG, priority 2020, published 2023)", "key": {"[1]": {"system": "MCL", "settings": "cited from earlier work; for response rates: relapsed MCL, targeted therapies"}, "[2]": {"system": "SUDHL4 cells", "assay": "in vitro ADCC assay (Calcein AM-labeled SUDHL4 cells) with PBMC, pNK or NK3.3 effector cells", "assay_type": "cell-based", "settings": "for improvement in VAY736-induced ADCC with lenalidomide: 72 hr lenalidomide treatment", "protocol": "NK3.3 cells were collected, washed 1×, and incubated in starvation media with or without 3 uM lenalidomide. Cells were incubated for 48 hrs or 72 hrs, collected, spun down, and resuspended in assay buffer. 100 μl of NK3.3 cells at the designated E:T ratios were transferred to a 96 well plate with SUDHL4 cells and antibodies. The co-culture was incubated for 2 hrs.\n(§1) Frozen PBMC were thawed, or fresh PBMCs were isolated. If T cells were depleted, PBMC were used for a positive depletion of CD3 using CD3 beads (Miltenyi #130-050-101). Cells were washed 1×, and incubated in unstimulated media (phenol red free/glutamax/hepes/anti-penicillin anti-streptomycin/FBS) with or without 3 μM, 1 μM or 10 μM Lenalidomide. Cells were incubated for 24 hrs or 72 hrs. The supernatant was taken and frozen for IL2 analysis. In one study, for the 72 hr culture, 100 pg/ml IL2 was added to the culture for the last 24 hrs. Primary NK cells were isolated the day of the co-culture setup. 100 μl of PBMC or pNK cells at the designated E:T ratios were transferred to the 96 well plate with the SUDHL4 cells and antibodies. The co-culture was incubated for 3 hrs or 4 hrs.\nA total of 10e6 or 4e6 SUDHL4 cells were incubated with Calcein AM for 60 minutes. Cells were then washed 2× with 30 ml of media. Cells were counted, and resuspended to 0.15 e6/ml or 0.2 e6/ml, and in one study 40 ng/ml of IL2 was added. A total of 50 μl cells were then transferred to a 96 well plate. […] Effector cells were then added to the 96 well plate. The plate was then spun in a centrifuge without the brake at 200×g for 4 min, and the co-culture was incubated for 2 hrs, 3 hrs or 4 hrs. The plate was then spun without the brake at 1500 RPM for 4 min. 100 μl of the supernatant was moved to black 96 well plates (Corning, #3904) and fluorescence was recorded with a PerkinElmer Envision plate reader."}, "[3]": {"system": "IL2", "assay": "IL2 production in PBMC treated with lenalidomide", "assay_type": "cell-based", "settings": "72 hr lenalidomide, PBMC with and without CD3+ cells (FIG. 8)", "protocol": "as §1"}, "[4]": {"system": "DLBCL cell line SUDHL4", "assay": "in vivo DLBCL model: SUDHL4 implanted subcutaneously into SCID mice", "settings": "5 mg/kg or 50 mg/kg VAY736 intravenously weekly", "source_text": "Vehicle and rituximab were used as controls."}, "[5]": {"biological_target": "T1, BAFF-R (Homo sapiens, UniProt Q96RJ3)", "T1 construct": "from tissue", "assay": "Phase Ib study CVAY736Y2102: tissue receptor occupancy", "assay_type": "in vivo", "settings": "VAY736 doses of 3 mg/kg or above, in combination with ibrutinib"}, "[6]": {"system": "BAFF", "assay": "Phase Ib study CVAY736Y2102: free BAFF", "assay_type": "in vivo, human", "settings": "VAY736 in combination with ibrutinib"}, "[7]": {"system": "mature B cell", "assay": "repeat dose toxicity study in mice: healthy B-cell levels", "assay_type": "in vivo, CD-1 mice", "protocol": "CD-1 mice were administered 0 mg/kg or 100 mg/kg of ianalumab by intravenous administration weekly for 13 weeks, followed by an 11 week recovery period."}, "[8]": {"system": "B cells", "assay_type": "in vivo, cynomolgus monkeys", "protocol": "(§2) A rising single i.v. dose range finding (DRF), toxicity and TK/PD study and three repeated dose toxicity studies were performed with ianalumab in cynomolgus monkeys. B-cell levels were evaluated in the studies."}, "[9]": {"system": "B cells", "assay": "three repeated dose toxicity studies", "assay_type": "in vivo, cynomolgus monkeys", "protocol": "as §2"}, "[10]": {"system": "DLBCL", "settings": "cited from earlier work"}}, "note": "Like-named read-outs stand apart in the source and are kept apart here.", "data": [{"molecule": "CC(C)C[C@H](NC(=O)[C@H](Cc1ccccc1)NC(=O)c1cnccn1)B(O)O", "note": "[bortezomib]", "values": [{"measurement": "response rates", "setting": "[1]", "result": "improved response rates"}]}, {"molecule": "C=CC(=O)N1CCC[C@@H](n2nc(-c3ccc(Oc4ccccc4)cc3)c3c(N)ncnc32)C1", "note": "[ibrutinib]", "values": [{"measurement": "treatment-related adverse effects compared to temsirolimus", "setting": "[1]; Phase III study", "result": "fewer treatment-related adverse effects"}]}, {"molecule": "Nc1cccc2c1CN(C1CCC(=O)NC1=O)C2=O", "note": "(stereo not drawn) [lenalidomide]", "values": [{"measurement": "ADCC with lenalidomide pretreatment", "setting": "[2]; NK3.3 effector cells, E:T 20:1 and 7:1, 72 hr and 48 hr pretreatment (FIGS. 5, 6)", "result": "Slight increases in ADCC"}, {"measurement": "VAY736-induced ADCC with addition of lenalidomide", "setting": "[2]; NK3.3 effector cells, more prominent with 72 hr pretreatment at E:T 20:1 (FIG. 2A-2B)", "result": "Increases in VAY736-induced ADCC"}, {"measurement": "VAY736-induced ADCC with lenalidomide pretreatment", "setting": "[2]; PBMC effector cells, 24 hrs pretreatment, E:T 2:1", "result": "only showed an enhancement at the highest concentration"}, {"measurement": "VAY736-induced ADCC with lenalidomide pretreatment", "setting": "[2]; PBMC effector cells, 24 hrs pretreatment, E:T 10:1", "result": "enhanced VAY736-induced ADCC"}, {"measurement": "VAY736-induced ADCC with lenalidomide pretreatment", "setting": "[2]; PBMC effector cells, 24 hrs pretreatment, E:T 20:1", "result": "only a slight enhancement"}, {"measurement": "improvement in VAY736-induced ADCC with lenalidomide", "setting": "[2]; PBMC effector cells, E:T 2:1", "result": "evident"}, {"measurement": "improvement in VAY736-induced ADCC with lenalidomide", "setting": "[2]; PBMC effector cells, E:T 6:1", "result": "less pronounced"}, {"measurement": "VAY736-induced ADCC with lenalidomide", "setting": "[2]; PBMC effector cells, 72 hr, E:T 3:1, largely dose-independent, hampered with IL2 stimulation", "result": "increased VAY736-induced ADCC"}, {"measurement": "dependence of the ADCC enhancement by lenalidomide on CD3+ T cells", "setting": "[2]; PBMC vs CD3+ depleted PBMC, 72 hr", "result": "dependent on the presence of CD3+ T cells"}, {"measurement": "VAY736-induced ADCC with lenalidomide pretreatment", "setting": "[2]; pNK cells isolated from PBMC pretreated 24 hrs, more so with 10:1 and 20:1", "result": "enhanced VAY736-induced ADCC"}, {"measurement": "VAY736-induced ADCC with lenalidomide pretreatment", "setting": "[2]; pNK cells, 72 hr Len pretreatment, E:T 1:1 and 1:3", "result": "enhanced VAY736-induced ADCC"}, {"measurement": "VAY736-dependent percent specific lysis of SUDHL4 cells on addition of lenalidomide", "setting": "[2]; various effector cells and treatment conditions", "result": "enhanced"}, {"measurement": "IL2 production in PBMC", "setting": "[3]", "result": "IL2 produced by lenalidomide treatment by T cells"}, {"measurement": "ORR", "setting": "[1]; heavily pre-treated population, Phase II study EMERGE", "result": 28, "unit": "%"}]}, {"molecule": "CO[C@H]1C[C@@H]2CC[C@@H](C)[C@@](O)(O2)C(=O)C(=O)N2CCCC[C@H]2C(=O)O[C@H]([C@H](C)C[C@@H]2CC[C@@H](OC(=O)C(C)(CO)CO)[C@H](OC)C2)CC(=O)[C@H](C)/C=C(\\C)[C@@H](O)[C@@H](OC)C(=O)[C@H](C)C[C@H](C)/C=C/C=C/C=C/1C", "note": "[temsirolimus]", "values": [{"measurement": "response rates", "setting": "[1]", "result": "improved response rates"}]}, {"molecule": "VAY736: non-fucosylated human IgG1 kappa anti-BAFFR antibody with enhanced ADCC; heavy chain SEQ ID NO: 9, light chain SEQ ID NO: 10", "values": [{"measurement": "tumor growth compared to the vehicle control (tumor volume measurements over time)", "setting": "[4]", "result": "significantly slowed tumor growth"}, {"measurement": "ADCC in the presence of VAY736", "setting": "[2]; effector cells PBMC, pNK cells, NK3.3 cell line", "result": "potent ADCC"}, {"measurement": "VAY736-dependent specific lysis of SUDHL4 cells, dose dependence", "setting": "[2]; various effector cells", "result": "dose-dependent"}, {"measurement": "tissue receptor occupancy", "setting": "[5]", "result": "> 99", "unit": "%"}, {"measurement": "free BAFF", "setting": "[6]", "result": "accumulated to steady state with no dose relationship"}, {"measurement": "mature B cell depletion", "setting": "[7]; 100 mg/kg intravenous weekly for 13 weeks", "result": "70-90%"}, {"measurement": "B cell levels during the recovery period", "setting": "[7]; 11 week recovery period after 100 mg/kg weekly for 13 weeks", "result": "recovered"}, {"measurement": "tolerability", "setting": "[8]; cynomolgus monkey, in vivo", "result": "well tolerated"}, {"measurement": "dose that induced depletion of B cells", "setting": "[8]; single i.v. dose", "result": "≥ 0.4", "unit": "mg/kg"}, {"measurement": "B cell depletion", "setting": "[9]", "result": "B cell depletion was observed at all dose levels"}]}, {"molecule": "blinatumomab: bispecific antibody", "values": [{"measurement": "response rates", "setting": "[10]; DLBCL", "result": "35-50%"}]}, {"molecule": "brentuximab vedotin", "values": [{"measurement": "ORR", "setting": "[10]; CD30+ relapsed DLBCL", "result": 44, "unit": "%"}]}, {"molecule": "polatuzumab vedotin", "values": [{"measurement": "ORR", "setting": "[10]; in combination with rituximab and bendamustine", "result": 70, "unit": "%"}]}]}
